In US11814680B2, “Biomarkers for detecting senescent cells” (Universität für Bodenkultur Wien, priority 2017, dated 2023):

Tested on: p16-3MR mice
Test: Pearson correlation of serum miRNA levels to miR-34a-5p and miR-27a-3p
Design: species or system mouse
Conditions: for Pearson Correlcation coefficient miR44a-5p: correlation of serum level to miR44a-5p (so in the source); for Pearson Correlcation coefficient miR-27a-3p: correlation of serum level to miR-27a-3p
Text: In order to extend these finding to potential additional miRNAs, we performed Pearson correlation to miR-34a-5p and miR-27a-3p, resulting in additional potential biomarkers (Table 18).

| Substance | Pearson Correlcation coefficient miR44a-5p | Pearson Correlcation coefficient miR-27a-3p |
| --- | --- | --- |
| mmu-miR-339-5p: circulating microRNA, SEQ ID No. 10 (UCCCUGUCCUCCAGGAGCUCACG; expressed or natural sequence; listed as Homo sapiens) | 0.64 | 0.87 |
| mmu-miR-652-3p: circulating microRNA, SEQ ID No. 13 (AAUGGCGCCACUAGGGUUGUG; expressed or natural sequence; listed as Homo sapiens) | 0.77 | 0.66 |
| mmu-miR-3058-3p: circulating microRNA, SEQ ID No. 8 (UUCCUGUCAGCCGUGGGUGCC; expressed or natural sequence; listed as Homo sapiens) | 0.80 | 0.54 |
| mmu-miR-6395: circulating microRNA, SEQ ID No. 12 (CUGGCCCUCUCUGCCCUGUUUA; expressed or natural sequence; listed as Homo sapiens) | 0.61 | 0.81 |
